Assay results reported in patent US20090318678A1, “Stable C-Glycoside Sugar and C-Glycoconjugate Mimetics, Method for preparing same and uses Thereof in Particular in Cosmetics and Drugs” (TFCHEM, priority 2006, published 2009).

Test system: α-galactosidase and β-galactosidase
Assay: Test in the presence of glycosidase (resistance to galactosidases, monitored by 19F NMR)
Type: in vitro ADME
Details: phosphate buffer 0.07 M, pH 7, 37° C.; α-galactosidase (5 units) and β-galactosidase (6.25 units); samples after 24, 48, 72, 96 and 120 hours
Method: Indeed, it is known that the following compounds undergo enzymatic break-down (FIG. 25).
The protocol used is as follows (FIG. 26)
A solution of compound 17a1 (17.72 mg) in water (500 μl) is added to a solution of phosphate buffer (0.07 M; pH 7, 4 ml) containing α-galactosidase (5 units) and β-galactosidase (6.25 units) at 37° C. The reaction is monitored by ^19F NMR. Samples are taken after 24, 48, 72, 96 and 120 hours.

For `C[C@H](NC(=O)[C@H](C)NC(=O)[C@@H](N)CCCCNC(=O)[C@H](F)[C@]1(O)O[C@H](CO)[C@H](O)[C@H](O)[C@H]1O)C(=O)O` [Compound 17a1], the “resistance to glycosidases / stability (change of the starting product by 19F NMR)” value was “No change is observed and the starting product remains”.
